Results published in US20050107611A1, “Pyrazolyl-substituted triazoloquinoxalines” (priority 2001, published 2005).

Biological target: T1, human A1-adenosine receptor (Homo sapiens, UniProt P30542)
T1 construct: expressed in transfected cells; host or cells: CHO cells
T1 sequence (P30542 1-326): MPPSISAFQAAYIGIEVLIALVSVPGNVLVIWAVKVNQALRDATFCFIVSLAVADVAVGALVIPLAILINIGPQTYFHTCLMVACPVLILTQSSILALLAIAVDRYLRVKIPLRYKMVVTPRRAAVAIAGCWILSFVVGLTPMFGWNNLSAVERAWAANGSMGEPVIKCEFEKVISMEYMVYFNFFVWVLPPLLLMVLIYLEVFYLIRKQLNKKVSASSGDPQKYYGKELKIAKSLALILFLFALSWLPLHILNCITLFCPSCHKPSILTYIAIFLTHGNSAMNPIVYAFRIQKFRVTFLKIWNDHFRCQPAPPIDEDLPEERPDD
Assay: Radioligand binding with [3H]CCPA on recombinant human A1-adenosine receptors expressed by CHO cells
Settings: read-out: A1 K1, Human
Excerpt: The following selective radioligands are used in the biological tests: • [^3H]CCPA (for A1 ARs) [Klotz et al., Naunyn-Schmiedeberg's Arch. Pharmacol., 340, 679 (1989)] • [^3]MSX-2 (for A2A ARs) [Muiller et al., Eur. J. Pharm. Sci., 10, 259 (2000)] • [^3H]ZM241385 (for A2B ARs_[X.-D. Ji, K. A. Jacobson, Drug Des. Discov., 16, 217 (1999)] • [^3H]PSB-11 (new antagonistic radioligand for human A3 ARs) [M. Dieckmann, M. Thorand, V. Ozola, C. E. Muiller, in Vorbereitung [Preparation] (2001)]. • [^125I]AB-MECA (for rat-A3 ARs) [Olah et al., Mol. Pharmacol., 45, 978 (1994)]. Description of the Assays That are Used for Testing Substances Production of Tissue Preparations Made from Rat Brains
As cell cultures, for example, CHO cells, which express the human A1-adenosine receptor, are used.
The nutrient medium, trypsine and PBS (phosphate-buffered common salt solution) are heated in a water bath to 37° C. The medium is suctioned off from the flask that is approximately 80% to 90% confluently covered with CHO cells. […]
The mixture is incubated for 90 minutes in an oscillating water bath at 23° C. […] The filter plates are conveyed in scintillation vials, doused with 2.5 ml of Ultima Gold Scintillation cocktail and incubated for at least 6 hours before they are measured in a scintillation counter.
The mean value is calculated from three independent experiments. […]

Q: With “4-(chloropyrazolyl)-1-(3-phenylpropyl)-[1,2,4-]triazolo[4,3-a]quinoxaline [Y = C—CH2—CH2—CH2-Ph, R5 = H, R6 = Cl]” as the substance, how does the Ki read?
A: Its Ki is 2 nM.
